By IC50 is commonly meant the midpoint of a concentration-inhibition curve.

Where two headings read alike, the source gives them in different places.

One test addresses Wee1 kinase (Homo sapiens, UniProt P30291). Kind of test: Wee1 Binding Assay (FRET). The method, then: Wee 1 kinase was determined by using Fluorescence Resonance Energy Transfer (FRET) assay. […] The plate was shaken for 30 seconds, incubated for 60 min at RT, and recorded on fluorescence plate reader.
The test system of another test is H23 cells. Kind of test: H23 Cellular Proliferation Assay (CellTiter-Glo). It is filed as cell-based. As to conditions: Homo sapiens, NCI-H23, 96 h, 4 days, read-out: H23 CTG IC50. The method, then:
H23 Cellular Proliferation Assay
Cells were treated with compounds diluted in DMSO and a 9 point 5-fold serial dilutions. Plates were placed in 37° C., 5% CO2 for to incubate for 4 days. Before they were developed by adding 100 μL of CellTiter-Glo reagent (Promega) to the assay plate, plates were shaken briefly for 2 mins and allowed to incubate at rt for 10 mins. The plates are read with a M5e plate reader according to CellTiter-Glo protocol. The GraphPad Prism software is used to get IC50 values.
For orientation: In ATP-based viability assays light output follows the ATP content of the culture.

Setting [1] is: FRET, Wee1 kinase 2 nM, tracer 178 50 nM, 60 min at RT, read-out: Wee1 enzymatic IC50.

Chain of Wee1 kinase (P30291 whole entry): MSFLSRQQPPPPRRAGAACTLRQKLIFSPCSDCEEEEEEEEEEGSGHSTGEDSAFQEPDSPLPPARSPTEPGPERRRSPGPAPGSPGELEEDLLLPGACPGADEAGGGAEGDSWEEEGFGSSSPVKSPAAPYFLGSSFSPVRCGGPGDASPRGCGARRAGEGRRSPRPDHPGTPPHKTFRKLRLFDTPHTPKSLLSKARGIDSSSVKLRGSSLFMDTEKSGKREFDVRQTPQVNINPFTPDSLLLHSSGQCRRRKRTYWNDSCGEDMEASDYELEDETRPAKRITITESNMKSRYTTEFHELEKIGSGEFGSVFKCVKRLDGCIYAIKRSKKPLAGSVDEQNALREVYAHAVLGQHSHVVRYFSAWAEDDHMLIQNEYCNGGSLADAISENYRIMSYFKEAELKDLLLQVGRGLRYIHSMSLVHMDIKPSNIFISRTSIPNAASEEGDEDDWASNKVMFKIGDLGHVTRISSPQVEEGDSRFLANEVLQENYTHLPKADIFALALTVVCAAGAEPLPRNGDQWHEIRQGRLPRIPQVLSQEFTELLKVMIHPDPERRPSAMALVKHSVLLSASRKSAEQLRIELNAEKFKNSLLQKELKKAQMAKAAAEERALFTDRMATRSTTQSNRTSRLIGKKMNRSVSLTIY

As to `C=CCn1c(=O)c2cnc(Nc3ccc(N4CCN(C)CC4)c(F)c3)nc2n1-c1ccc2c(n1)[C@](C)(O)CC2` (single isomer, unassigned) [Example 11B], the half-maximal inhibitory concentration (IC50) at Wee1 kinase (setting [1]) was under 10 nM; in the test on H23 cells, 100 to 1000 nM.

For the compound `C=CCn1c(=O)c2cnc(Nc3ccc(N4CCN(C)CC4)c(C)c3)nc2n1-c1ccc2c(n1)[C@](O)(CC)CC2` (single isomer, unassigned) [Example 12A], the IC50 was under 10 nM on Wee1 kinase and 100 to 1000 nM in the test with H23 cells.

In the case of `C=CCn1c(=O)c2cnc(Nc3ccc(N4CCN(C)CC4)c(C)c3)nc2n1-c1ccc2c(n1)[C@@](O)(CC)CC2` (single isomer, unassigned) [Example 12B], the results for the IC50 at Wee1 kinase and in the test with H23 cells were under 10 nM and under 100 nM, respectively.

Consider `C=CCn1c(=O)c2cnc(Nc3ccc(N4CCN(C)CC4)cc3)nc2n1-c1ccc2c(n1)[C@](O)(C(F)F)CC2` (single isomer, unassigned) [Example 15A], for which the half-inhibitory concentration (IC50) at Wee1 kinase is under 10 nM; in the test on H23 cells, over 1000 nM.

Regarding `C=CCn1c(=O)c2cnc(Nc3ccc(N4CCN(C)CC4)cc3)nc2n1-c1ccc2c(n1)[C@@](O)(C(F)F)CC2` (single isomer, unassigned) [Example 15B], the IC50 at Wee1 kinase is under 10 nM; in the test with H23 cells it was 100 to 1000 nM.

Take `C=CCn1c(=O)c2cnc(Nc3ccc(N4CCN(C)CC4)cc3)nc2n1-c1ccc2c(n1)[C@@](O)(C1CC1)CC2` (single isomer, unassigned) [Example 16B]: the concentration for half-maximal inhibition (IC50) was under 10 nM on Wee1 kinase and 100 to 1000 nM in the test with H23 cells.

Turning to `C=CCn1c(=O)c2cnc(Nc3ccc(N4CCN(C)CC4)cc3)nc2n1-c1ccc2c(c1)[C@@](C)(O)CC2` (single isomer, unassigned) [Example 21A], the figures for the IC50 on Wee1 kinase and in the test with H23 cells were under 10 nM and over 1000 nM, respectively.

As for `C=CCn1c(=O)c2cnc(Nc3ccc(N4CCN(C)CC4)cc3)nc2n1-c1ccc2c(c1)[C@](C)(O)CC2` (single isomer, unassigned) [Example 21B], the IC50 was under 10 nM at Wee1 kinase and 100 to 1000 nM in the test with H23 cells.

Take `C=CCn1c(=O)c2cnc(Nc3ccc(N4CCN(C)CC4)cc3)nc2n1-c1ccc2c(c1)[C@](O)(CC)CC2` (single isomer, unassigned) [Example 22A]: the IC50 was 10 to 100 nM on Wee1 kinase (setting [1]) and over 1000 nM in the test on H23 cells.

As for `C=CCn1c(=O)c2cnc(Nc3ccc(N4CCN(C)CC4)cc3)nc2n1-c1ccc2c(c1)[C@@](O)(CC)CC2` (single isomer, unassigned) [Example 22B], the IC50 on Wee1 kinase (setting [1]) was under 10 nM; in the test on H23 cells it was 100 to 1000 nM.

For the compound `C=CCn1c(=O)c2cnc(Nc3ccc(N4CCN(C)CC4)cc3)nc2n1-c1ccc2c(n1)[C@@](C)(O)CCC2` (single isomer, unassigned) [Example 25A], the IC50 on Wee1 kinase is under 10 nM; with H23 cells, 100 to 1000 nM.

Turning to `C=CCn1c(=O)c2cnc(Nc3ccc(N4CCN(C)CC4)cc3)nc2n1-c1ccc2c(n1)[C@](C)(O)CCC2` (single isomer, unassigned) [Example 25B], the IC50 at Wee1 kinase was under 10 nM; with H23 cells it was 100 to 1000 nM.

As for `C=CCn1c(=O)c2cnc(Nc3ccc(N4CCN(C)CC4)cc3)nc2n1-c1ccc2c(n1)[C@](O)(CC)CCC2` (single isomer, unassigned) [Example 26A], the IC50 at Wee1 kinase is under 10 nM; in the test on H23 cells, over 1000 nM.

On to `C=CCn1c(=O)c2cnc(Nc3ccc(N4CCN(C)CC4)cc3)nc2n1-c1ccc2c(n1)[C@@](O)(CC)CCC2` (single isomer, unassigned) [Example 26B], for which the figures for the IC50 on Wee1 kinase and in the test on H23 cells were under 10 nM and under 100 nM, respectively.

For the compound `C=CCn1c(=O)c2cnc(Nc3ccc(N4CCN(C)CC4)c(C)c3)nc2n1-c1ccc2c(n1)[C@@](C)(O)CCC2` (single isomer, unassigned) [Example 27A], the IC50 at Wee1 kinase (setting [1]) is under 10 nM; with H23 cells it was 100 to 1000 nM.

For `C=CCn1c(=O)c2cnc(Nc3ccc(N4CCN(C)CC4)c(C)c3)nc2n1-c1ccc2c(n1)[C@](C)(O)CCC2` (single isomer, unassigned) [Example 27B], the results for the IC50 on Wee1 kinase (setting [1]) and in the test with H23 cells were under 10 nM and 100 to 1000 nM, respectively.

As for `C=CCn1c(=O)c2cnc(Nc3ccc4c(c3)CNCC43CC3)nc2n1-c1ccc2c(n1)[C@](O)(C(F)(F)F)CC2` (single isomer, unassigned) [Example 30A], the IC50 was under 10 nM at Wee1 kinase and 100 to 1000 nM in the test with H23 cells.

As to `C=CCn1c(=O)c2cnc(Nc3ccc4c(c3)CNCC43CC3)nc2n1-c1ccc2c(n1)[C@@](O)(C(F)(F)F)CC2` (single isomer, unassigned) [Example 30B], the concentration for half-maximal inhibition (IC50) on Wee1 kinase is under 10 nM; in the test with H23 cells, 100 to 1000 nM.

For `C=CCn1c(=O)c2cnc(Nc3ccc(N4CCN(C)CC4)cc3)nc2n1-c1cnc2c(c1)[C@@](C)(O)CO2` (single isomer, unassigned) [Example 35A, 2-allyl-1-(3-hydroxy-3-methyl-2,3-dihydrofuro[2,3-b]pyridin-5-yl)-6-((4-(4-methylpiperazin-1-yl)phenyl)amino)-1,2-dihydro-3H-pyrazolo[3,4-d]pyrimidin-3-one], the figures for the IC50 on Wee1 kinase (setting [1]) and with H23 cells were 10 to 100 nM and over 1000 nM, respectively.

On to `C=CCn1c(=O)c2cnc(Nc3ccc(N4CCN(C)CC4)cc3)nc2n1-c1cnc2c(c1)[C@](C)(O)CO2` (single isomer, unassigned) [Example 35B], for which the IC50 is 10 to 100 nM on Wee1 kinase (setting [1]) and over 1000 nM with H23 cells.

On to `C=CCn1c(=O)c2cnc(Nc3ccc(N4CCN(C)CC4)cc3)nc2n1-c1cn2c(n1)[C@@](C)(O)CC2` (single isomer, unassigned) [Example 36A], for which the IC50 at Wee1 kinase (setting [1]) was 10 to 100 nM; with H23 cells it was over 1000 nM.

With `C=CCn1c(=O)c2cnc(Nc3ccc(N4CCN(C)CC4)cc3)nc2n1-c1cn2c(n1)[C@](C)(O)CC2` (single isomer, unassigned) [Example 36B], the concentration for half-maximal inhibition (IC50) at Wee1 kinase (setting [1]) is over 100 nM; with H23 cells it was over 1000 nM.

`C=CCn1c(=O)c2cnc(Nc3ccc(N4CCNCC4)cc3)nc2n1-c1ccc2c(n1)C(F)(F)CC2` [Example 7, 2-Allyl-1-(7,7-difluoro-6,7-dihydro-5H-cyclopenta[b]pyridin-2-yl)-6-((4-(piperazin-1-yl)phenyl)amino)-1,2-dihydro-3H-pyrazolo[3,4-d]pyrimidin-3-one]: the IC50 on Wee1 kinase (setting [1]) was under 10 nM; with H23 cells, over 1000 nM.

With `C=CCn1c(=O)c2cnc(Nc3ccc(N4CCN(C)CC4)cc3)nc2n1-c1ccc2c(n1)C(F)(F)CC2` [Example 8, 2-Allyl-1-(7,7-difluoro-6,7-dihydro-5H-cyclopenta[b]pyridin-2-yl)-6-((4-(4-methylpiperazin-1-yl)phenyl)amino)-1,2-dihydro-3H-pyrazolo[3,4-d]pyrimidin-3-one], the IC50 on Wee1 kinase was under 10 nM; with H23 cells, 100 to 1000 nM.

Regarding `C=CCn1c(=O)c2cnc(Nc3ccc(N4CCN(C)CC4)cc3)nc2n1-c1cn2c(n1)COCC2` [Example 32, 2-allyl-1-(5,6-dihydro-8H-imidazo[2,1-c][1,4]oxazin-2-yl)-6-((4-(4-methylpiperazin-1-yl)phenyl)amino)-1,2-dihydro-3H-pyrazolo[3,4-d]pyrimidin-3-one], the values for the IC50 on Wee1 kinase (setting [1]) and in the test on H23 cells were 10 to 100 nM and over 1000 nM, respectively.

`C=CCn1c(=O)c2cnc(Nc3ccc(N4CCN(C)CC4)cc3)nc2n1-c1ccc2c(n1)C(=O)N(C)C2` [Example 33, 2-allyl-1-(6-methyl-7-oxo-6,7-dihydro-5H-pyrrolo[3,4-b]pyridin-2-yl)-6-((4-(4-methylpiperazin-1-yl)phenyl)amino)-1,2-dihydro-3H-pyrazolo[3,4-d]pyrimidin-3-one]: the IC50 on Wee1 kinase (setting [1]) is 10 to 100 nM; in the test with H23 cells, over 1000 nM.

The values above are taken from patent publication US11261192B2, “Substituted 1,2-dihydro-3H-pyrazolo[3,4-D]pyrimidin-3-ones” (Recurium IP Holdings, LLC, priority 2018, dated 2022).
